Assay results from ChEMBL document CHEMBL2146470, “Novel Carboxamide-Based Allosteric MEK Inhibitors: Discovery and Optimization Efforts toward XL518 (GDC-0973)” (ACS Med Chem Lett, 2012).
Blank lines part the entries; values can stand above or below the compound they belong to.

How the values were obtained:
[1] = molecular target: Dual specificity mitogen-activated protein kinase kinase 1 (Homo sapiens, UniProt Q02750)
Description: Inhibition of MEK1-mediated ERK2 T202/Y204 phosphorylation using biotinylated MBP as substrate preincubated for 30 mins measured after 100 mins by cRAF-MEK-ERK enzyme coupled assay

[2] = molecular target: Dual specificity mitogen-activated protein kinase kinase; MEK1/2 (Homo sapiens, UniProt P36507+Q02750)
Description: Inhibition of MEK-mediated ERK T202/Y204 phosphorylation in human MDA-MB-231T cells after 1 hr by immunoblotting

Rattus norvegicus [3] = assay: Dose normalised AUC (0 to t) in Sprague-Dawley rat at 5 mg/kg, po; format: ADME, organism-based; design: dose 5 mg/kg, route oral; conditions: in vivo
[4] = Antitumor activity against human MDA-MB-231T cells xenografted in athymic nude NCr mouse assessed as tumor growth inhibition at 3 mg/kg administered qd for 14 days relative to control; format: functional; conditions: 336 h, read-out: GI
Mus musculus [5] = assay: Inhibition of MEK-mediated ERK T202/Y204 phosphorylation in nude NCr mouse brain xenografted with human MDA-MB-231T cells at 5 mg/kg, po after 24 hrs by immunoblotting; format: functional
[6] = Drug uptake in brain of nude NCr mouse xenografted with human MDA-MB-231T cells at 10 mg/kg, po measured after 24 hrs by LC-MS analysis; format: ADME, organism-based; design: dose 10 mg/kg, route oral; conditions: read-out: Drug uptake
Mus musculus [7] = assay: Inhibition of MEK-mediated ERK T202/Y204 phosphorylation in human MDA-MB-231T cells xenografted in nude NCr mouse tumor at 100 mg/kg, po after 24 hrs by immunoblotting; format: functional
[8] = Drug metabolism in rat liver microsomes at 15 uM after 30 mins; format: ADME, Microsome; conditions: read-out: Drug metabolism
[9] = Drug metabolism in human liver microsomes at 15 uM after 30 mins; format: ADME, Microsome; conditions: read-out: Drug metabolism
[10] = Drug uptake in tumor of nude NCr mouse xenografted with human MDA-MB-231T cells at 10 mg/kg, po measured after 24 hrs by LC-MS analysis; format: ADME, organism-based, Neoplasm; design: dose 10 mg/kg, route oral; conditions: read-out: Drug uptake
Mus musculus [11] = assay: Inhibition of MEK-mediated ERK T202/Y204 phosphorylation in nude NCr mouse brain xenografted with human MDA-MB-231T cells at 20 mg/kg, po after 24 hrs by immunoblotting; format: functional
[12] = Plasma concentration in nude NCr mouse xenografted with human MDA-MB-231T cells at 10 mg/kg, po measured after 24 hrs by LC-MS analysis; format: ADME, organism-based; design: dose 10 mg/kg, route oral
Mus musculus [13] = assay: Inhibition of MEK-mediated ERK T202/Y204 phosphorylation in human MDA-MB-231T cells xenografted in nude NCr mouse tumor at 5 mg/kg, po after 24 hrs by immunoblotting; format: functional
[14] = Drug uptake in tumor of nude NCr mouse xenografted with human MDA-MB-231T cells at 5 mg/kg, po measured after 24 hrs by LC-MS analysis; format: ADME, organism-based; design: dose 5 mg/kg, route oral; conditions: read-out: Drug uptake
[15] = Clearance in Sprague-Dawley rat at 5 mg/kg, po; format: ADME, organism-based; design: dose 5 mg/kg, route oral; conditions: in vivo
Mus musculus [16] = assay: Inhibition of MEK-mediated ERK T202/Y204 phosphorylation in human MDA-MB-231T cells xenografted in nude NCr mouse tumor at 20 mg/kg, po after 24 hrs by immunoblotting; format: functional
[17] = Half life in Sprague-Dawley rat at 5 mg/kg, po; format: ADME, organism-based; design: dose 5 mg/kg, route oral; conditions: in vivo
[18] = Drug uptake in brain of nude NCr mouse xenografted with human MDA-MB-231T cells at 20 mg/kg, po measured after 24 hrs by LC-MS analysis; format: ADME, organism-based; design: dose 20 mg/kg, route oral; conditions: read-out: Drug uptake
Mus musculus [19] = assay: Inhibition of MEK-mediated ERK T202/Y204 phosphorylation in nude NCr mouse brain xenografted with human MDA-MB-231T cells at 10 mg/kg, po after 24 hrs by immunoblotting; format: functional
Mus musculus [20] = assay: Inhibition of MEK-mediated ERK T202/Y204 phosphorylation in nude NCr mouse brain xenografted with human MDA-MB-231T cells at 100 mg/kg, po after 24 hrs by immunoblotting; format: functional
Mus musculus [21] = assay: Inhibition of MEK-mediated ERK T202/Y204 phosphorylation in human MDA-MB-231T cells xenografted in po dosed nude NCr mouse tumor after 24 hrs by immunoblotting; format: functional
[22] = Plasma concentration in nude NCr mouse xenografted with human MDA-MB-231T cells at 20 mg/kg, po measured after 24 hrs by LC-MS analysis; format: ADME, organism-based; design: dose 20 mg/kg, route oral
[23] = Plasma concentration in athymic nude NCr mouse xenografted with human MDA-MB-231T cells at 3 mg/kg administered qd for 14 days; format: ADME, organism-based; design: dose 3 mg/kg
[24] = Drug uptake in tumor of nude NCr mouse xenografted with human MDA-MB-231T cells at 20 mg/kg, po measured after 24 hrs by LC-MS analysis; format: ADME, organism-based, Neoplasm; design: dose 20 mg/kg, route oral; conditions: read-out: Drug uptake
Salmonella typhimurium = assay: Mutagenic activity in Salmonella typhimurium by Ames test; format: toxicity, organism-based; conditions: salmonella enterica subsp. enterica serovar typhimurium
[25] = Apparent permeability across MDCK cells; format: ADME, cell-based, Canis lupus familiaris; conditions: dog
Brain = assay: Drug metabolism in brain of nude NCr mouse xenografted with human MDA-MB-231T cells assessed as 3,4-difluoro-2-(2-fluoro-4-iodophenylamino)benzoic acid level at 100 mg/kg, po measured after 24 hrs by LC-MS analysis; format: ADME, organism-based; design: dose 100 mg/kg, route oral; conditions: in vivo
[26] = Plasma concentration in nude NCr mouse xenografted with human MDA-MB-231T cells at 5 mg/kg, po measured after 24 hrs by LC-MS analysis; format: ADME, organism-based; design: dose 5 mg/kg, route oral
[27] = Protein binding in serum; format: ADME, cell-free
Rattus norvegicus [28] = assay: Toxicity against po dosed rat assessed as adverse effect administered as subchronical dose; format: organism-based; conditions: in vivo
[29] = Drug uptake in brain of nude NCr mouse xenografted with human MDA-MB-231T cells at 100 mg/kg, po measured after 24 hrs by LC-MS analysis; format: ADME, organism-based; design: dose 100 mg/kg, route oral; conditions: read-out: Drug uptake
[30] = Oral bioavailability in Sprague-Dawley rat at 5 mg/kg; format: ADME, organism-based; conditions: in vivo
[31] = Plasma concentration in nude NCr mouse xenografted with human MDA-MB-231T cells at 100 mg/kg, po measured after 24 hrs by LC-MS analysis; format: ADME, organism-based; design: dose 100 mg/kg, route oral
Mus musculus [32] = assay: Inhibition of MEK-mediated ERK T202/Y204 phosphorylation in human MDA-MB-231T cells xenografted in nude NCr mouse tumor at 10 mg/kg, po after 24 hrs by immunoblotting; format: functional
[33] = Drug uptake in brain of nude NCr mouse xenografted with human MDA-MB-231T cells at 5 mg/kg, po measured after 24 hrs by LC-MS analysis; format: ADME, organism-based; design: dose 5 mg/kg, route oral; conditions: read-out: Drug uptake
[34] = Antitumor activity against human MDA-MB-231T cells xenografted in athymic nude NCr mouse assessed as tumor growth inhibition at 1 mg/kg administered qd for 14 days relative to control; format: functional; conditions: 336 h, read-out: GI
[35] = Drug uptake in tumor of nude NCr mouse xenografted with human MDA-MB-231T cells at 100 mg/kg, po measured after 24 hrs by LC-MS analysis; format: ADME, organism-based, Neoplasm; design: dose 100 mg/kg, route oral; conditions: read-out: Drug uptake

Sequence of Dual specificity mitogen-activated protein kinase kinase 1 (Q02750 whole entry): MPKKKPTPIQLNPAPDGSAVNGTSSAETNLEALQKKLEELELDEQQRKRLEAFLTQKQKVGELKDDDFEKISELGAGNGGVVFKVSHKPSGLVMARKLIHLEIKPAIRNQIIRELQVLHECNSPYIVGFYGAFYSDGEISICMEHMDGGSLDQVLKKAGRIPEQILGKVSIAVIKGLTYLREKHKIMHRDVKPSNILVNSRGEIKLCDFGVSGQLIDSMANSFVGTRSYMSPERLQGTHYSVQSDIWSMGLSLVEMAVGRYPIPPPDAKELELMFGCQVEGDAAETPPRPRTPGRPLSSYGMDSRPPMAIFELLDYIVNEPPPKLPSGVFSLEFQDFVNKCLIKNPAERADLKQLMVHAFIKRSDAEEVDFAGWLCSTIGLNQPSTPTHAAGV

IC50 [1]: 27 nM | IC50 [2]: 29 nM
Structure (SMILES): O=C(c1ccc(F)c(F)c1Nc1ccc(I)cc1F)N1CC(O)(CO)C1

AUCt/dose (Rattus norvegicus [3]): 0.35 µM·h/mg/kg | concentration at 24 h [6]: < 4 nM | metabolised at 0.5 h, 15 µM [8]: 22.4% | metabolised at 0.5 h, 15 µM [9]: 13.8% | concentration at 24 h [10]: 1990 nM | concentration at 24 h [12]: 100 nM | concentration at 24 h [14]: 530 nM | CL/F [15]: 59.4 mL/min/kg | half-life [17]: 6.1 h | concentration at 24 h [18]: < 4 nM | concentration at 24 h [22]: 100 nM | concentration at 336 h [23]: 130 nM | concentration at 24 h [24]: 3590 nM | Papp [25]: 10.5 ×10⁻⁶ cm/s | Drug uptake (Brain): Not Active | concentration at 24 h [26]: < 4 nM | Activity [27]: 94% | concentration at 24 h [29]: 220 nM | IC50 [1]: 0.9 nM | bioavailability [30]: 77% | IC50 [2]: 0.2 nM | concentration at 24 h [31]: 120 nM | concentration at 24 h [33]: < 4 nM | concentration at 24 h [35]: 22800 nM
Structure (SMILES): O=C(c1ccc(F)c(F)c1Nc1ccc(I)cc1F)N1CC(O)([C@@H]2CCCCN2)C1 [COBIMETINIB]
inhibition in vivo at 3 mg/kg [4]: 93% | inhibition in vivo at 5 mg/kg (Mus musculus [5]): 8% | inhibition in vivo at 100 mg/kg (Mus musculus [7]): 87% | inhibition in vivo at 20 mg/kg (Mus musculus [11]): 2% | inhibition in vivo at 5 mg/kg (Mus musculus [13]): 16% | inhibition in vivo at 20 mg/kg (Mus musculus [16]): 75% | inhibition in vivo at 10 mg/kg (Mus musculus [19]): 7% | inhibition in vivo at 100 mg/kg (Mus musculus [20]): 0% | ED90 (Mus musculus [21]): 39.7 mg/kg | Activity (Salmonella typhimurium): Non-toxic | Activity (Rattus norvegicus [28]): Non-toxic | inhibition in vivo at 10 mg/kg (Mus musculus [32]): 45% | inhibition in vivo at 1 mg/kg [34]: 60%

AUCt/dose (Rattus norvegicus [3]): 0.05 µM·h/mg/kg | metabolised at 0.5 h, 15 µM [8]: 80.1% | metabolised at 0.5 h, 15 µM [9]: 30.8% | CL/F [15]: 139 mL/min/kg | half-life [17]: 1.5 h | Papp [25]: 39.9 ×10⁻⁶ cm/s | bioavailability [30]: 19%
Structure (SMILES): O=C(c1ccc(F)c(F)c1Nc1ccc(I)cc1F)N1CC(O)C1

IC50 [1]: 7.6 nM | IC50 [2]: 50 nM
Structure (SMILES): O=C(c1ccc(F)c(F)c1Nc1ccc(I)cc1F)N1CC(O)(CN2CCCC2)C1
